Consider three compounds from publication PMC6244536, “In Vivo Stabilized SB3, an Attractive GRPR Antagonist, for Pre- and Intra-Operative Imaging for Prostate Cancer” (Molecular Imaging and Biology, 2018).

As a reminder, the IC50 is the concentration that inhibits the measured activity by half. Broadly, the tissue uptake is the share of the injected amount in each gram of the tissue.

One data set concerns the target human GRPR (Homo sapiens, UniProt P30550). Description: biochemical. The protocol: (§1) All statistical evaluations were performed with GraphPad Prism software (version 5.01). The IC50 value was calculated using a log (inhibitor) vs response model. To compare in vivo stability −/+ PA, radioactivity uptake in the tumor −/+ PA and radioactivity uptake in the tumor without and with an excess of unlabeled peptide an unpaired t test was used. P values < 0.05 were considered statistically significant. Tumor to organ uptake ratios were calculated per animal and expressed as mean and standard deviation per group.

For data set [1] the following is noted: pre-clinical studies of PA combined with radiotracers; cited from earlier work. An excerpt:
For application in patients, NEP inhibitors that are already approved for clinical use such as Sacubitril and Racecadotril might be applied.

Data set [2] concerns PC-3 tumor xenografts (GRPR-expressing). The settings on record: 1 h p.i.; for tumor ROI signal intensity on SPECT: 25 MBq/200 pmol i.v. The protocol: For SPECT/MRI, PC-3-xenografted mice were intravenously injected with 25 MBq/200 pmol [^111In]SB3, co-injected with either 300 μg/100 μl PA in 0.5 % ethanol or 100 μl saline solution. Subsequently, imaging was performed 1, 4, and 24 h p.i. of the radiotracer, while animals were anesthetized using isoflurane/O2, body temperature was maintained using warm air flow, and respiratory rate was monitored. Whole-body SPECT images were acquired using the novel and state-of-the-art four-head multipinhole system (NanoScan SPECT/MRI, Mediso Medical Imaging) in 30 min (28 projections, 29 s/projection, and 7-cm axial field of view). Images were reconstructed using OSEM with six iterations and four subsets on a 120 × 120 matrix with 0.25 × 0.25 × 0.25-mm isotropic voxels. MR-based attenuation correction was applied to all images. T2 MR images were acquired using a spin echo sequence (TR/TE = 4500/52 ms) with a 35-mm-diameter solenoid coil. Other scan parameters were field of view 70 mm, matrix 256 × 128, and slice thickness 1 mm with 0.1-mm spacing between slices. An ROI of the tumor was drawn by an experienced technician on the T2-weighted MR image to measure the intensity in the SPECT image.

For data set [3] the following is noted: Indium-111 labeled; cited from earlier work. From the text: Preclinical as well as clinical PET imaging studies using [^68Ga]SB3 have been performed with great success. […] To increase the in vivo stability of radiopeptides, multiple solutions are available, including structural modifications of a peptide or the novel approach of inhibition of enzymes responsible for enzymatic degradation. Since structural modifications are time consuming, and ...

For data set [4] the following is noted: healthy mice, blood 5 min p.i., radio-HPLC, mean ± SD; for intact radiotracer, % of remaining circulating activity in blood: 200 pmol/25 MBq i.v.; for intact radiotracer in blood: 2000 pmol/25 MBq i.v. The procedure: To determine the stability of [^111In]SB3 −/+ PA in vivo, healthy mice (n = 3 per group) were intravenously injected with 200 pmol/25 MBq or 2000 pmol/25 MBq [^111In]SB3 (volume 100 μl), co-injected with either 300 μg/100 μl PA (Peptides International Inc.) in 0.5 % ethanol or 100 μl saline solution. Five minutes after injection of [^111In]SB3 −/+ PA, blood (0.5–1 ml) was collected by cardiac puncture, while animals were under isoflurane/O2 anesthesia, and transferred to blood-collection tubes containing 90 USP units of lithium heparin (spray coated), HPLC grade ethanol was added in a 1:1 (v/v) ratio, and the tubes were placed on ice. Blood samples were centrifuged 5 min at 1250g, and supernatant was collected. Next, the collected supernatant was centrifuged again for 5 min at 12,500g. The secondary supernatant was collected and diluted with MilliQ down to < 25 % ethanol before injection on HPLC. The samples were analyzed by HPLC (Alliance, Waters) including a Symmetry C18 column (5 μm × 4.6 mm × 250 mm). Elution was performed in a 1-ml/min flow, completed in 30 min, with the gradient 0–5 min 100 % A, 5–5.01 min 40 % A 60 % B, 5.01–20 min 20 % A 80 % B, 20–20.01 min 100 % B, 20.01–25 min 100 % B, and 25.01–30 min 100 % A, where A was 0.1 % TFA in H2O and B was methanol.

The test system of data set [5] is PC-3 tumor xenografts (GRPR-expressing). Description: in vivo. The note with it: mouse. The protocol:
(§2) Healthy or xenografted Balb c nu/nu male mice (Janvier) were used in this study. To obtain xenografted mice, animals were injected subcutaneously in the right shoulder with PC-3, 3 × 10^6 cells in Matrigel (total volume 150 μl, solution 66 % RPMI, 33 % Matrigel) per animal. Prior to tumor cell inoculation, the PC-3 cells were cultured in RPMI medium supplemented with 10 % fetal bovine serum, 5000 IU/ml penicillin, and 5000 μg/ml streptomycin at 37 °C in a humidified atmosphere containing 5 % CO2. PC295 is an androgen-dependent, patient-derived cell line with high GRPR expression. Xenografts were generated by subcutaneous implantation of the PC295 human prostate tumor as previously described and were stored at − 80 °C until further use. All culture supplies were purchased at Gibco.
(§3) Tumor-bearing mice received an intravenous injection of 200 pmol/2.5 MBq [^111In]SB3, co-injected with either 300 μg/100 μl PA in 0.5 % ethanol or 100 μl saline solution (n = 4 animals per group for each time point). […] To determine specificity of tumor and organ uptake, blocking experiments were performed; an additional group of animals (n = 3) was pre-injected with an excess (20 nmol) of unlabeled SB3 followed by injection of the radiotracer −/+ PA. At three different time points p.i. (1, 4, and 24 h), animals were euthanized and blood, organs, and tumors were collected, weighed, and measured in a γ-counter (1480 WIZARD automatic γ-counter, PerkinElmer). For γ-counter measurements, an isotope specific energy window, a counting time of 60 s, and a counting error ≤ 5 % were used. Results were expressed as the percentage of the injected dose per gram tissue (% ID/g tissue). Animals that had ≥ 7 % ID in the tail were excluded.
as §1

A short description of the next data set: in vivo. The settings on record: male, Balb c nu/nu, mouse, iv, total radioactivity. The protocol: as §2, §3, §1
Where [6] appears, read: co-injected with 300 μg PA, n = 3.

Each structure is given as a SMILES string. Like-named read-outs stand apart in the source and are kept apart here.

human GRPR, sequence (P30550 whole entry): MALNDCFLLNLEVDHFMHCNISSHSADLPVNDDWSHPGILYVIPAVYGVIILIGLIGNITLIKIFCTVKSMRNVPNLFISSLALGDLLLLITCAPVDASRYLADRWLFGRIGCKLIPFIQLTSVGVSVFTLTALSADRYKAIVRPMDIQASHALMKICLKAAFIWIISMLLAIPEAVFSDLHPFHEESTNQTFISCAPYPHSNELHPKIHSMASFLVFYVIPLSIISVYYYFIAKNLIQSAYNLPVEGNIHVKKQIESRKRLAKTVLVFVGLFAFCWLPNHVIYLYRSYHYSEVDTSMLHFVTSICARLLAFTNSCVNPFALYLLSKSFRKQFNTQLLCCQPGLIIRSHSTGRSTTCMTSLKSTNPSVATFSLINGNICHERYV

Take `CCNC(=O)[C@H](CC(C)C)NC(=O)[C@H](Cc1c[nH]cn1)NC(=O)CNC(=O)[C@@H](NC(=O)[C@H](C)NC(=O)[C@H](Cc1c[nH]c2ccccc12)NC(=O)[C@H](CCC(N)=O)NC(=O)[C@@H](Cc1ccccc1)NC(=O)COCC(=O)Nc1ccc(CNC(=O)CN2CCN(CC(=O)O)CCN(CC(=O)O)CCN(CC(=O)O)CC2)cc1)C(C)C` [SB3, Sarabesin 3]: the IC50 against human GRPR is 3.5 nM.
As to `CC(C)C[C@H](NP(=O)(O)O[C@@H]1O[C@@H](C)[C@H](O)[C@@H](O)[C@H]1O)C(=O)N[C@@H](Cc1c[nH]c2ccccc12)C(=O)O` [PA, phosphoramidon], in data set [1], the adverse events result is “have not indicated any adverse events”.
`CCNC(=O)[C@H](CC(C)C)NC(=O)[C@H](Cc1c[nH]cn1)NC(=O)CNC(=O)[C@@H](NC(=O)[C@H](C)NC(=O)[C@H](Cc1c[nH]c2ccccc12)NC(=O)[C@H](CCC(N)=O)NC(=O)[C@@H](Cc1ccccc1)NC(=O)COCC(=O)Nc1ccc(CNC(=O)CN2CCN(CC(=O)O)CCN(CC(=O)O)CCN(CC(=O)O)CC2)cc1)C(C)C` [[^111In]SB3, metal not drawn]: the “tumor ROI signal intensity on SPECT” value in data set [2] (with 300 μg PA) is reported as 2434 kBq/ml; in data set [2] (without PA) it was 1424 kBq/ml. Besides, the “increase in tumor signal intensity with PA vs without PA” value in data set [2] (ROI analysis, 25 MBq/200 pmol) was found to be 70%. Besides, the in vivo stability entry in data set [3] is “poor in vivo stability”. The “intact radiotracer, % of remaining circulating activity in blood” value came out at 86.7 ± 1.5% in data set [4] (setting [6]) and 37.3 ± 2.5% in data set [4] (without PA, n = 3). For the same compound, the “intact radiotracer in blood” value in data set [4] (setting [6]) was 87.9 ± 1.1%; in data set [4] (without PA, one animal excluded) it was 42.0 ± 0.2%. For the same compound, in data set [5], the “uptake in the pancreas and the tumor with an excess of unlabeled SB3 (blocking)” value is “significantly decreased”. Besides, the tissue uptake at 1 h came to 4.1 ± 2.3 %ID/g in “in vivo” (200 pmol, pancreatic uptake); 3.9 ± 1.4 %ID/g in “in vivo” (200 pmol, renal uptake); 10.2 ± 1.5 %ID/g in the data set “in vivo” (200 pmol, tumor uptake); 10.1 ± 4.3 %ID/g in “in vivo” (pancreatic uptake); 4.5 ± 1.4 %ID/g in the data set “in vivo” (renal uptake); 19.7 ± 3.5 %ID/g in “in vivo” (tumor uptake). The tissue to tissue ratio at 1 h worked out at 2.8 ± 1 in “in vivo” (200 pmol, tumor to kidney ratio); 3.4 ± 2.5 in “in vivo” (200 pmol, tumor to pancreas radioactivity ratio); 4.8 ± 2.2 in the data set “in vivo” (tumor to kidney ratio); 2.2 ± 0.8 in “in vivo” (tumor to pancreas radioactivity ratio). Moreover, the tissue uptake at 4 h in “in vivo” (200 pmol, tumor uptake) came out at 8.3 ± 1.1 %ID/g; in the data set “in vivo” (tumor uptake), 17.6 ± 5.1 %ID/g. Also, the tissue uptake at 24 h in “in vivo” (200 pmol, tumor uptake) turned out to be 3.1 ± 1.9 %ID/g; in the data set “in vivo” (tumor uptake) it was 6.5 ± 3.3 %ID/g.
